From patent US20210330756A1, “Acetylation of Miro1” (University of South Carolina, priority 2020, published 2021)

Tested on: axonal mitochondrial transport in DRG neurons
Assay: FRAP of Mito-GFP in distal axons of DRG neurons
Type: cell-based, rat
Protocol: MAG or Aggrecan exposures were performed as bath application or on coated substrates. For bath application, dissociated DRGs were cultured for 48 h and treated with 25 μg/ml of MAG-Fc (R&D Systems; 538-MG), 25 μg/ml Fc control (R&D Systems; 110-HG), or 10 μg/ml of Aggrecan (Sigma-Aldrich; A1960) for 4 h. Cultures were pretreated with either Ca^2+ chelator BAPTA-AM (3 μM; Sigma-Aldrich; A1076), ROCK inhibitor Y27632 (10 μM; Sigma-Aldrich; SCM075), HDAC6 inhibitor TubA (10 μM; R&D Systems; 6270), Thapsigargin (1 μM; Sigma-Aldrich; T9033), Rho Activator II (1 μg/ml; Cytoskeleton; CNO3), or equivalent volume DMSO 30 min before MAG-Fc, Aggrecan, or controls. For substrate-bound experiments, adult DRGs were cultured on glass bottom dishes (Greiner) that were coated with 25 μg/ml Aggrecan in addition to the laminin/poly-D-lysine substrate.
Mito-KR- and Mito-GFP-expressing DRG neurons were used for FRAP analyses at 48-72 h after transfection. To evaluate mitochondrial motility in Mito-KR-expressing neurons, Mito-KR signals were photobleached using continual exposure to an argon laser set at 594 nm for 30 s (100% laser power) The bleached ROI was then monitored for recovery using an argon laser set at 580 nm every 10 s over 16 min (13% laser power). For FRAP analyses with Mito-GFP, GFP signals were photobleached in a 50 μm ROI using an argon laser set at 488 nm every 10 s for 16 min (70% laser power). The same excitation was used for post-bleach imaging to assess recovery every 10 s for 16 min. For axon shaft FRAP experiments in Mito-GFP-expressing neurons, ROIs of ˜50 μm in length (without branches) were imaged >100 μm proximal to the growth cone. Prebleach, bleach, and post-bleach sequences were the same as for Mito-GFP above. In all cases, neurons were imaged over 40 s or more to acquire baseline Mito-KR or Mito-GFP signals before photobleaching using an argon laser (580 nm at 13% power for Mito-KR and 488 nm at 31% power for Mito-GFP).
Vesicle trafficking was quantified using differential ImageJ Difference Tracker Plug-in (Andrews et al., 2010). 50-80-μm long unbranched axon segments at approximately the mid-region between growth cone and cell body were analyzed. Kymographs were generated using ImageJ Kymograph Plug-in. For analyses of axon retraction in the CALI experiment, the distance from the distal tip of the growth cone in the pre-CALI image sequence was used as the baseline (t=1 min). The distance between the growth tip at end of the post-CALI sequence and the pre-CALI baseline was measured using LAS-X software. Movement of ≥0.5 μm toward the axon shaft was counted as retracted. Fluorescence emission of the Mito-KR post-CALI was analyzed using ImageJ. For normalizing intensities across FRAP image sets, fluorescence intensity at each time point was scaled using the LAS-X FRAP module so that the residual fluorescence signal at t=0 min (post-bleach) was set at 0 and the prebleach intensity was set at 100% for each bleached ROI. For axon shaft FRAP analyses, each 50-μm bleached ROI was divided into […], and the fluorescence intensity recovery was measured as described above. EMs at 1,900× and 4,800× magnification across the crosssectional surface of each sciatic nerve were used for in vivo analyses of mitochondrial content. A minimum of 75 unmyelinated axons was analyzed for each nerve. All unmyelinated axons from each analyzed image were included for quantitative studies. The total number of mitochondria was determined in each unmyelinated axon in the field and was divided by the total number of unmyelinated axons for all subjects. […] was determined by changes in JC-1 fluorescence. JC-1 exists either as a green fluorescent monomer at depolarized membrane potentials or as an orange-red fluorescent aggregate at hyperpolarized membrane potentials. […]

Compound	Mito-GFP recovery for thapsigargin-treated cultures, Myc-Miro1K105Q-expressing neurons (1 μM thapsigargin + 10 μM TubA)	Mito-GFP recovery for thapsigargin-treated cultures, Myc-Miro1K629Q-expressing neurons (1 μM thapsigargin + 10 μM TubA)	Mito-GFP recovery in DRGs transfected with WT, K40Q or K40A α-tubulin (10 μM TubA vs DMSO, 960 s after bleach)	mitochondrial transport with combined 10 μM TubA, 3 μM BAPTA-AM and ROCK inhibitor vs each alone (MAG-Fc, Mito-GFP FRAP)	effect on Rho activator-dependent decrease in mitochondrial transport (Rho-Activator + 10 μM TubA)	effect on aggrecan-dependent decrease in Mito-GFP recovery (aggrecan 10 μg/ml, TubA 10 μM or Y27632 10 μM)	effect on MAG-Fc-dependent decrease in Mito-GFP recovery / mitochondrial transport (pretreatment: TubA 10 μM, Y27632 10 μM or BAPTA-AM 3 μM, 960 s after bleach)	effect on thapsigargin-dependent decrease in mitochondrial transport (thapsigargin + 10 μM TubA)	mitochondrial transport in DRG axons (Mito-GFP FRAP) (1 μM thapsigargin)
CN1CCc2c(c3ccccc3n2Cc2ccc(C(=O)NO)cc2)C1 [TubA, tubastatin]	only a modest response to TubA treatment	significantly increased by TubA treatment	significantly increases Mito-GFP recovery in all three conditions	did not increase mitochondrial transport above the results seen	prevented by treatment with TubA	prevented by treatment with TubA	prevented by TubA pretreatment	prevented by inhibition of HDAC6	
C/C=C(/C)C(=O)O[C@H]1C(C)=C2[C@H]([C@@H]1OC(=O)CCCCCCC)[C@@](C)(OC(C)=O)C[C@H](OC(=O)CCC)[C@@]1(O)[C@H]2OC(=O)[C@@]1(C)O [thapsigargin]									similarly decreased mitochondrial transport
